# Experiments:
# [1] = RP-HPLC stability (decomposition) of 20-OR ester prodrugs in PBS pH 7.4; format: physicochemical
# Text: CPT glycinate fragmentation pattern [m/z(%)] was: 406 (25%), 331 (100%), 303 (30%); CPT ortho lactone fragmentation pattern was: 406 (100%), 388 (40%), 303 (20%). […] HPLC data for each analog studied was consistent with the generation of the novel decomposition products, along with the lactone and carboxylate forms of the parent drug. […] N-methyl CPT glycinate fragmentation pattern [m/z(%)] was: 420 (86%), 331 (100%), 303 (30%); CPT N-methyl ortho lactone fragmentation pattern was: 420 (100%), 402 (50%), 303 (37%). As in the case for the camptothecin glycinate ester, the novel degradation products were generated from the proposed lactam intermediate. Further evidence for proposed degradation products 3 and 4 includes: (1) Glycine carbonyl ^13C isotopic labeling NMR experiment in PBS showing that this carbon exists as a tetrahedral carbon as in 3. (2) Glycine ^15N isotopic labeling NMR experiments showing that 3 and 4 have amide bonds.
# [2] = format: in vitro ADME, human; details: for prodrug decomposition: PBS pH 7.4, human plasma and blood, RP-HPLC
# [3] = Stability of free and core-loaded liposomal prodrug in whole blood
molecule,measurement,setting,value
"CCC1(OC(=O)CCCN)C(=O)OCc2c1cc1n(c2=O)Cc2cc3ccccc3nc2-1 (stereo not drawn) [R=COCH2CH2CH2NH2, camptothecin 4-aminobutanoate ester]",half-life of decomposition,"[1]; buffer, pH 7.4",36.7 h
CCc1c2c(nc3ccc(O)cc13)-c1cc3c(c(=O)n1C2)COC(=O)C3(CC)OC(=O)CN (stereo not drawn) [SN-38 glycinate ester],prodrug decomposition,[2],extensive chemical (i.e. non-enzymatic) decomposition
"CC[C@@]1(OC(C)=O)C(=O)OCc2c1cc1n(c2=O)Cc2cc3ccccc3nc2-1 [camptothecin-20(S)-acetate, reference compound]",stability / hydrolysis,[2]; pH 7.4,excellent stability
"CCC1(OC(=O)CN)C(=O)OCc2c1cc1n(c2=O)Cc2cc3ccccc3nc2-1 [camptothecin-20(S)-glycinate 1, camptothecin-20(S)-glycinate]",decomposition,"[1]; 1 μM, PBS (pH 7.4), 37° C., within 3 hours",~90%
same,prodrug decomposition,[2],extensive chemical (i.e. non-enzymatic) decomposition
DB-67 4-aminobutanoate ester,decomposition of free prodrug,[3],extensive

# Source: patent US7064202B1 (University of Kentucky Research Foundation, priority 2003, dated 2006)
